ChEMBL document CHEMBL4229511, “Synthesis and biological activity investigation of azole and quinone hybridized phosphonates” (Bioorg Med Chem Lett, 2018)
In brackets after ≈: the same amount, converted by molar mass.

Key:
[1] = test system: Aspergillus flavus; assay: Antifungal activity against Aspergillus flavus by CLSI […] protocol based method; format: functional
[2] = test system: Fusarium graminearum; assay: Antifungal activity against Fusarium graminearum by CLSI […] protocol based method; format: functional
[3] = test system: Candida albicans; assay: Antifungal activity against Candida albicans ATCC 64124 by CLSI […] protocol based method; format: functional
[4] = test system: Candida albicans; assay: Antifungal activity against Candida albicans MYA2876 by CLSI […] protocol based method; format: functional
[5] = test system: Cryptococcus neoformans; assay: Antifungal activity against Cryptococcus neoformans H99 by CLSI […] protocol based method; format: functional; conditions: var grubii H99
[6] = test system: Rhodotorula mucilaginosa; assay: Antifungal activity against Rhodotorula pilimanae by CLSI […] protocol based method; format: functional
[7] = test system: Staphylococcus aureus; assay: Antibacterial activity against Staphylococcus aureus ATCC 33591 after 18 hrs; format: functional; conditions: ATCC 33591, 18 h
[8] = test system: Escherichia coli; assay: Antibacterial activity against Escherichia coli ATCC 25922 after 18 hrs; format: functional; conditions: ATCC 25922, 18 h
[9] = test system: Staphylococcus aureus; assay: Antibacterial activity against Staphylococcus aureus ATCC 25923 after 18 hrs; format: functional; conditions: ATCC 25923, 18 h
[10] = test system: Staphylococcus aureus; assay: Antibacterial activity against Staphylococcus aureus ATCC 43300 after 18 hrs; format: functional; conditions: ATCC 43300, 18 h
[11] = test system: HeLa; assay: Cytotoxicity against human HeLa cells after 24 hrs by MTT assay; format: cell-based
[12] = test system: HeLa; assay: Cytotoxicity against human HeLa cells up to 10 ug/ml after 24 hrs by MTT assay; format: cell-based

| SMILES | MIC [1] [µg/mL] | MIC [2] [µg/mL] | MIC [3] [µg/mL] | MIC [4] [µg/mL] | MIC [5] [µg/mL] | MIC [6] [µg/mL] | MIC [7] [µg/mL] | MIC [8] [µg/mL] | MIC [9] [µg/mL] | MIC [10] [µg/mL] | IC50 [11] [µg/mL] | Activity [12] |
| --- | --- | --- | --- | --- | --- | --- | --- | --- | --- | --- | --- | --- |
| CCCCCCCCS(=O)(=O)OC[C@H]1O[C@H](O[C@@H]2[C@@H](O)[C@H](O[C@H]3O[C@H](CN)[C@@H](O)[C@H](O)[C@H]3O)[C@@H](N)C[C@H]2N)[C@H](O)[C@@H](N)[C@@H]1O | > 256 | 32 (≈ 48.4 µM) | 256 (≈ 387 µM) | 64 (≈ 96.9 µM) | 4 (≈ 6.05 µM) | 4 (≈ 6.05 µM) | – | – | – | – | – | – |
| CCOP(=O)(CCCCCCCCCCn1nnc2c1C(=O)c1ccccc1C2=O)OCC | – | 0.5 (≈ 1.05 µM) | > 128 | > 128 | > 128 | > 128 | 64 (≈ 135 µM) | > 128 | > 128 | 16 to 64 (≈ 33.6 to 135 µM) | 65.7 (≈ 138 µM) | Non-Toxic |
| O=C1c2ccccc2C(=O)c2c1nnn2CCCP(=O)([O-])[O-].[K+].[K+] | 16 to 32 | 32 | 32 | 32 | 32 | 32 | 128 | > 256 | 32 | 64 to 128 | 88 | Non-Toxic |
| CCOP(=O)(CCCCn1nnc2c1C(=O)c1ccccc1C2=O)OCC | > 128 | 8 (≈ 20.4 µM) | > 128 | > 128 | 32 (≈ 81.8 µM) | 128 (≈ 327 µM) | 128 (≈ 327 µM) | > 128 | 128 (≈ 327 µM) | 64 to 128 (≈ 164 to 327 µM) | 9.11 (≈ 23.3 µM) | – |
| CCOP(=O)(CCCCCCn1nnc2c1C(=O)c1ccccc1C2=O)OCC | > 128 | 4 (≈ 9.54 µM) | > 128 | > 128 | 32 (≈ 76.3 µM) | 64 to 128 (≈ 153 to 305 µM) | 64 (≈ 153 µM) | > 128 | 32 to 64 (≈ 76.3 to 153 µM) | 32 to 64 (≈ 76.3 to 153 µM) | 47 (≈ 112 µM) | – |
| O=C1c2ccccc2C(=O)c2c1nnn2CCCCCCCCP(=O)([O-])[O-].[K+].[K+] | 8 to 16 | 32 | 16 to 32 | 8 to 16 | 32 | > 128 | 256 | > 256 | 64 | > 256 | 95.3 | Non-Toxic |
| CCOP(=O)(CCn1nnc2c1C(=O)c1ccccc1C2=O)OCC | 64 to 128 (≈ 176 to 352 µM) | 16 (≈ 44 µM) | > 128 | > 128 | 16 (≈ 44 µM) | 64 to 128 (≈ 176 to 352 µM) | 64 (≈ 176 µM) | > 128 | 64 (≈ 176 µM) | 64 (≈ 176 µM) | 13.8 (≈ 38.1 µM) | – |
| CCOP(=O)(CCCn1nnc2c1C(=O)c1ccccc1C2=O)OCC | 64 to 128 (≈ 170 to 339 µM) | 16 (≈ 42.4 µM) | > 128 | > 128 | 16 (≈ 42.4 µM) | 64 to 128 (≈ 170 to 339 µM) | 64 (≈ 170 µM) | > 128 | 64 (≈ 170 µM) | 64 to 128 (≈ 170 to 339 µM) | 6.97 (≈ 18.5 µM) | – |
| O=C1c2ccccc2C(=O)c2c1nnn2CCCCCCP(=O)([O-])[O-].[K+].[K+] | 64 | 64 | 32 to 64 | 32 to 64 | 64 | 128 | 64 | > 256 | 32 to 64 | 64 | 73.6 | Non-Toxic |
| O=C1c2ccccc2C(=O)c2c1nnn2CCCCCCCCCCP(=O)([O-])[O-].[K+].[K+] | – | 32 | 128 | 128 | 32 | 64 | > 256 | > 256 | 32 to 64 | > 256 | > 100 | Non-Toxic |
| O=C1c2ccccc2C(=O)c2c1nnn2CCP(=O)([O-])[O-].[K+].[K+] | > 128 | 32 | > 128 | > 128 | 64 | 128 | 128 | > 256 | 32 | 128 | 91.8 | Non-Toxic |
| CCOP(=O)(CCCCCCCCn1nnc2c1C(=O)c1ccccc1C2=O)OCC | > 128 | 1 to 2 (≈ 2.23 to 4.47 µM) | > 128 | > 128 | > 128 | > 128 | 32 (≈ 71.5 µM) | > 128 | 64 (≈ 143 µM) | 16 to 32 (≈ 35.8 to 71.5 µM) | 52 (≈ 116 µM) | Non-Toxic |
| C[C@@H](c1ncncc1F)[C@](O)(Cn1cncn1)c1ccc(F)cc1F [VORICONAZOLE] | 1 (≈ 2.86 µM) | 32 (≈ 91.6 µM) | > 256 | 0.125 (≈ 0.358 µM) | 0.125 (≈ 0.358 µM) | 8 (≈ 22.9 µM) | – | – | – | – | – | – |
